# In patent publication US6667387B1, “HCV core peptides” (priority 1992, dated 2003):
# Ends that are not written are not given here.
# Key:
# Type in all cases: binding, human
# [1] = test system: antibodies in antisera from HIV-1 infected persons; test: ELISA with HIV-1 antibody-positive sera (biotinylated peptides on streptavidin- or avidin-coated plates, unbiotinylated peptides coated directly); conditions: for number borderline / number negative / number positive / percent borderline / percent negative / percent positive: Table 16
# Experimental: (§1) Where peptides were to be coated directly, stock solutions of the peptides were diluted in sodium carbonate buffer, pH 9.6 and used to coat polystyrene microtiter plates at a peptide concentration of 2 to 5 micrograms per milliliter for 1 hour at 37° C.
# (§2) In cases where biotinylated peptides were to be evaluated, plates were first coated with streptavidin in sodium carbonate buffer, pH 9.6 at a concentration of 3 micrograms per milliliter for 1 hour at 37° C. The plates were then washed to remove excess, unbound protein. A working solution of the biotinylated peptide at 1 microgram per milliliter in sodium carbonate buffer was then added to the wells of the microtiter plate and incubated for 1 hours at 37° C.
# (§3) Once the plates had been coated with antigen, any remaining free binding sites on the plastic were blocked with casein. After washing, a dilution of the appropriate antisera, usually 1:100, was added to the wells of the plates and incubated for 1 hour at 37° C.
# (§4) After washing to remove unbound material, specific antibody binding was detected by incubating the plates with goat anti-human immunoglobulin antibodies conjugated to the enzyme horseradish peroxidase. Following removal of unbound conjugate by washing, a solution containing H2O2 and 3,3′,5,5′-tetramethylbenzidine was added.
# (§5) Reactions were stopped after a suitable interval by addition of sulfuric acid. […] Absorbance measurements were made at a wavelength of 450 nanometers and all data are expressed as an optical density value at this wavelength.
# Experiments were performed to evaluate antibody recognition of short, 10 amino acid-long, N-acetylated peptides corresponding to other contained within the transmembrane proteins of HIV-1 and HIV-2. […] The peptides used for the comparison were as follows:
# Antibody binding to these peptides was compared to antibody binding to the unibiotinylated peptides which were coated directly onto microtiter plates.
# In order to evaluate antibody recognition of these two peptides, the peptides were bound individually to streptavidin-coated microtiter plates and tested using a panel of antisera from HIV-1 seropositive donors.
# (§6) To determine how well biotinylated peptides would function in a mixture when bound to streptavidin- or avidin-coated plates, two mixtures were made of the N-terminally biotinylated versions of the HIV-1 peptides TM-HIV-1 (hereabove referred to as 1a.1) and V3-nm (hereabove referred to as 1b.4), the HIV-2 peptide TM-HIV-2 (hereabove referred to as 2a), and the hepatitis C virus peptides II, IX, and XVIII. Mixture A contained each of the six biotinylated peptides at a concentration of 1 microgram per milliliter (6 micrograms per milliliter peptide, total) while in mixture B, each peptide was present at a concentration of 0.1 microgram per milliliter (0.6 microgram per milliliter peptide, total). The individual peptides were coated at a concentration of 1 microgram per milliliter. For purposes of comparison, mixtures A and B were also coated directly onto the wells of a microtiter plate. Samples from HIV-1, HIV-2, and HCV-seropositive donors were tested and compared to sera from seronegative blood donors. A cut-off absorbance value of 0.250 was used to determine whether a reaction was positive or negative. Absorbance values equal or greater than 0.250 were considered positive while absorbance values below this value were considered negative.
# A spacer consisting of two glycine residues was added to the amino terminus.
# [2] = ELISA with seronegative / negative control sera (specificity)
# Experimental: as §1, §2, §3, §4, §5
# (§7) Unbiotinylated HCV peptide I was coated directly onto the wells of a polystyrene ELISA plate at a concentration of 3 micrograms per milliliter in sodium carbonate buffer, pH 9.6. Biotinylated HCV peptide I was bound to streptavidin-coated wells using a stock solution containing the peptide at a concentration of 1 microgram per milliliter. The resulting plates were then incubated in parallel with a panel of sera from HCV-seropositive donors. […] Two of the sera (8326 and 8244) recognize the biotinylated version of this peptide far better than the unbiotinylated version. The specificity of the antibody reaction is also reflected by the low optical density values obtained for 5 serum samples from uninfected donors (F88, F89, F76, F136, and F6).
# as §6
# [3] = test system: antibodies in antisera from HIV-2 infected persons; test: ELISA with HIV-2 antibody-positive sera (biotinylated peptides on streptavidin- or avidin-coated plates, unbiotinylated peptides coated directly); conditions: for optical density (450 nm): Table 1; for number borderline / number negative / number positive / percent borderline / percent negative / percent positive: Table 17, HIV-2 positive sera, 21 tested
# Experimental: as §1, §2, §3, §4, §5
# The biotinylated peptides were loaded onto microtiter plates which had been coated with streptavidin. Antibody binding to these peptides was compared to antibody binding to the unibiotinylated peptides which were coated directly onto microtiter plates. It is evident that the biotinylated peptides from the HIV-1 or HIV-2 transmembrane proteins bound to streptavidin are recognized very well by antisera from HIV-1 or HIV-2 infected persons respectively. This is in contrast to the unbiotinylated versions of these peptides coated directly onto the polystyrene plates.
# as §6
# Two glycine residues were added at the N-terminus of each peptide to serve as a spacer and a biotin was coupled to the α-amino group of the resulting N-terminal glycine. The peptides were bound to streptavidin and coated in the wells of microwell plates. HIV-2 antibody-positive sera were used to evaluate these two peptides in an ELISA.
# [4] = test system: antibodies in sera from HCV-seropositive donors; test: ELISA with HCV antibody-positive sera (biotinylated peptides on streptavidin- or avidin-coated plates, unbiotinylated peptides coated directly); conditions: Table 4B, 20-fold dilution
# Experimental: as §1, §2, §3, §4, §5
# The unbiotinylated peptides were adsorbed onto the wells of polystyrene microtiter plates at a concentration of 3 micrograms per milliliter.
# The biotinylated peptides were bound at a concentration of 1 microgram per milliliter to streptavidin-coated microtiter plates. Sera known to contain antibodies to these peptides were used for the evaluation and were tested at a 20-fold dilution.
# To investigate further the enhanced antibody recognition of biotinylated HCV peptides bound to streptavidin or avidin as compared to direct adsorption on plastic, the influence of peptide coating concentration was investigated. Three peptides (HCV peptides II, XI, and XVI) were coated in concentrations ranging from 10 nanograms per milliliter to 3 micrograms per milliliter in a volume of 200 microliters per microtiter plate well. For direct coating, the unbiotinylated versions of these peptides were used. The biotinylated versions of these peptides were used to coat wells to which streptavidin had previously been adsorbed. Sera known to contain antibodies to these peptides were used at a dilution of 1 to 100 to evaluate the magnitude of antibody binding.
# as §7
# To determine how well biotinylated peptides would function in a mixture when bound to streptavidin- or avidin-coated plates, two mixtures were made of the N-terminally biotinylated versions of the HIV-1 peptides TM-HIV-1 (hereabove referred to as 1a.1) and V3-nm (hereabove referred to as 1b.4), the HIV-2 peptide TM-HIV-2 (hereabove referred to as 2a), and the hepatitis C virus peptides II, IX, and XVIII. […]
substance,measurement,setting,value
Ac-Tyr-Asn-Lys-Arg-Lys-Arg-Ile-His-Ile-Gly-Pro-Gly-Arg-Ala-Phe-Tyr-Thr-Thr-Lys-Asn-Ile-Ile-Gly-NH2 (Ac-YNKRKRIHIGPGRAFYTTKNIIG-NH2) [Peptide V3-mn],optical density (450 nm),"[1]; Table 2, sample 266",0.951
same,optical density (450 nm),"[1]; Table 2, sample 3990",1.442
same,optical density (450 nm),"[1]; Table 2, sample 4436",0.388
same,optical density (450 nm),"[1]; Table 2, sample 4438",0.736
same,optical density (450 nm),"[1]; Table 2, sample DV",1.314
same,optical density (450 nm),"[1]; Table 2, sample MM",0.791
same,optical density (450 nm),"[1]; Table 2, sample OOST 4",1.106
same,optical density (450 nm),"[1]; Table 2, sample OOST 6",1.025
same,optical density (450 nm),"[1]; Table 2, sample OOST 8",1 389
same,optical density (450 nm),"[1]; Table 2, sample PL",0.531
same,optical density (450 nm),"[1]; Table 2, sample VE",1.717
same,optical density (450 nm),"[1]; Table 2, sample YS",1.442
same,optical density (450 nm),"[2]; Table 2, negative control",0.063
"Ac-Ile-Trp-Gly-Cys-Ser-Gly-Lys-Leu-Ile-Cys-NH2 (Ac-IWGCSGKLIC-NH2; cysteine pairing not given here) [TM-HIV-1, unbiotinylated N-acetylated decamer of the HIV-1 transmembrane protein]",optical density (450 nm),"[1]; Table 1, serum 0724, HIV-1 positive",0.174
same,optical density (450 nm),"[1]; Table 1, serum PL, HIV-1 positive",0.000
same,optical density (450 nm),"[1]; Table 1, serum VE, HIV-1 positive",0.052
same,optical density (450 nm),"[1]; Table 1, serum YEMO, HIV-1 positive",0.162
same,optical density (450 nm),"[1]; Table 1, serum mm, HIV-1 positive",0.051
same,optical density (450 nm),"[3]; serum 53-3, HIV-2 positive",0.000
same,optical density (450 nm),"[3]; serum 1400, HIV-2 positive",0.000
same,optical density (450 nm),"[3]; serum AG, HIV-2 positive",0.000
same,optical density (450 nm),"[2]; Table 1, serum 180, seronegative donor",0.000
same,optical density (450 nm),"[2]; Table 1, serum 194, seronegative donor",0.000
same,optical density (450 nm),"[2]; Table 1, serum 195, seronegative donor",0.000
same,optical density (450 nm),"[2]; Table 1, serum 204, seronegative donor",0.000
"Asn Lys Thr Val Leu Pro Val Thr Ile Met Ser Gly Leu Val Phe His Ser Gln Pro Ile Asn Asp (NKTVLPVTIMSGLVFHSQPIND; printed: Asn Lys Thr Val Leu Pro Val Thr Ile Met Ser Gly Leu Val Phe His Ser Gln Pro Ile Asn Asp) [Peptide V2-239, HIV-2/SIV mm 239 V3; two glycine residues at the N-terminus and biotin]",number borderline,[3],2
same,number negative,[3],0
same,number positive,[3],19
same,percent borderline,[3],9.5%
same,percent negative,[3],0%
same,percent positive,[3],90.5%
"NNTRRGIHMGWGRTFYATGEIIG [Peptide V3-368, two glycine residues at the amino terminus, N-terminal glycine biotinylated]",number borderline,"[1]; African sera, 45 tested",9
same,number negative,"[1]; African sera, 45 tested",31
same,number positive,"[1]; African sera, 45 tested",5
same,percent borderline,"[1]; African sera, 45 tested",20%
same,percent negative,"[1]; African sera, 45 tested",69%
same,percent positive,"[1]; African sera, 45 tested",11%
same,number borderline,"[1]; Brazilian sera, 36 tested",15
same,number negative,"[1]; Brazilian sera, 36 tested",5
same,number positive,"[1]; Brazilian sera, 36 tested",16
same,percent borderline,"[1]; Brazilian sera, 36 tested",41.7%
same,percent negative,"[1]; Brazilian sera, 36 tested",13.9%
same,percent positive,"[1]; Brazilian sera, 36 tested",44.4%
same,number borderline,"[1]; European sera, 36 tested",20
same,number negative,"[1]; European sera, 36 tested",12
same,number positive,"[1]; European sera, 36 tested",4
same,percent borderline,"[1]; European sera, 36 tested",56%
same,percent negative,"[1]; European sera, 36 tested",33%
same,percent positive,"[1]; European sera, 36 tested",11%
Leu-Arg-Lys-Ser-Arg-Arg-Phe-Ala-Gln-Ala-Leu-Pro-Val-Trp-Ala-Arg-Pro-Asp-Tyr-Asn [Unbiotinylated peptide XVI] (LRKSRRFAQALPVWARPDYN; printed: Leu-Arg-Lys-Ser-Arg-Arg-Phe-Ala-Gln-Ala-Leu-Pro-Val-Trp-Ala-Arg-Pro-Asp-Tyr-Asn),optical density (450 nm),[4]; serum 1,1.038
same,optical density (450 nm),[4]; serum 2,0.616
same,optical density (450 nm),[4]; serum 6,0.100
same,optical density (450 nm),[4]; serum 8,0.329
same,optical density (450 nm),[4]; serum 10,1.033
same,optical density (450 nm),[4]; serum 26,0.053
same,optical density (450 nm),[4]; serum 83,0.912
same,optical density (450 nm),[4]; serum 88,1.187
same,optical density (450 nm),[4]; serum 89,0.495
same,optical density (450 nm),[4]; serum 91,0.197
same,optical density (450 nm),[4]; serum 95,0.109
same,optical density (450 nm),[4]; serum 99,0.814
same,optical density (450 nm),[4]; serum 100,0.474
same,optical density (450 nm),[4]; serum 104,0.205
same,optical density (450 nm),[4]; serum 105,0.313
same,optical density (450 nm),[4]; serum 110,0.762
same,optical density (450 nm),[4]; serum 111,0.193
same,optical density (450 nm),[4]; serum 112,0.253
same,optical density (450 nm),[4]; serum 113,0.833
same,optical density (450 nm),[4]; serum 116,0.058
same,optical density (450 nm),[4]; serum 120,0.964
same,optical density (450 nm),[4]; serum 266,0.712
same,optical density (450 nm),[4]; serum 8247,0.059
same,optical density (450 nm),[4]; serum 11476,0.068
same,optical density (450 nm),[4]; serum 24758,0.071
same,optical density (450 nm),"[2]; Table 4B, negative serum",0.063
"Asn Lys Thr Val Val Pro Ile Thr Leu Met Ser Gly Leu Val Phe His Ser Gln Pro Ile Asn Lys (NKTVVPITLMSGLVFHSQPINK; printed: Asn Lys Thr Val Val Pro Ile Thr Leu Met Ser Gly Leu Val Phe His Ser Gln Pro Ile Asn Lys) [Peptide V3-GB12, HIV-2 V3; two glycine residues at the N-terminus and biotin]",number borderline,[3],0
same,number negative,[3],0
same,number positive,[3],21
same,percent borderline,[3],0%
same,percent negative,[3],0%
same,percent positive,[3],100%
